According to the NIST ThermoML archive (doi:10.1016/j.fluid.2018.04.007):

Assays:
[1] = refractive index (Na D-line) (dimensionless); xn = mol fraction of the nth substance listed; conditions: 101 kPa, Liquid, Standard Abbe refractometry
[2] = relative permittivity at various frequencies (dimensionless); xn = mol fraction of the nth substance listed; conditions: 101 kPa, Liquid, Frequency=1 MHz, Parallel plate capacitor

CCCCCCN [1-hexanamine] + CCCCCCCO
Conditions | refractive index, 293.15 K | refractive index, 298.15 K | refractive index, 303.15 K | relative permittivity, 293.15 K | relative permittivity, 298.15 K | relative permittivity, 303.15 K
[1], x2 = 0 | 1.41807 | 1.41563 | 1.41321 | – | – | –
[1], x2 = 0.056 | 1.41916 | 1.41674 | 1.41434 | – | – | –
[1], x2 = 0.1018 | 1.41999 | 1.41761 | 1.41523 | – | – | –
[1], x2 = 0.1463 | 1.42077 | 1.4184 | 1.41604 | – | – | –
[1], x2 = 0.2047 | 1.42171 | 1.41937 | 1.41703 | – | – | –
[1], x2 = 0.3044 | 1.4231 | 1.4208 | 1.41853 | – | – | –
[1], x2 = 0.4059 | 1.42423 | 1.42197 | 1.41974 | – | – | –
[1], x2 = 0.5044 | 1.42503 | 1.4228 | 1.42062 | – | – | –
[1], x2 = 0.602 | 1.4255 | 1.42331 | 1.42116 | – | – | –
[1], x2 = 0.7029 | 1.42563 | 1.42351 | 1.42142 | – | – | –
[1], x2 = 0.7979 | 1.42545 | 1.42339 | 1.42136 | – | – | –
[1], x2 = 0.8534 | 1.42521 | 1.4232 | 1.4212 | – | – | –
[1], x2 = 0.8986 | 1.42496 | 1.42299 | 1.42103 | – | – | –
[1], x2 = 0.9472 | 1.42464 | 1.42271 | 1.42079 | – | – | –
[2], x2 = 0 | – | – | – | 3.963 | 3.903 | 3.848
[2], x2 = 0.0503 | – | – | – | 4.202 | 4.133 | 4.07
[2], x2 = 0.095 | – | – | – | 4.414 | 4.339 | 4.271
[2], x2 = 0.1606 | – | – | – | 4.731 | 4.644 | 4.567
[2], x2 = 0.2073 | – | – | – | 4.97 | 4.882 | 4.796
[2], x2 = 0.3067 | – | – | – | 5.497 | 5.392 | 5.291
[2], x2 = 0.4038 | – | – | – | 6.064 | 5.934 | 5.811
[2], x2 = 0.4991 | – | – | – | 6.671 | 6.508 | 6.358
[2], x2 = 0.6036 | – | – | – | 7.425 | 7.224 | 7.035
[2], x2 = 0.7001 | – | – | – | 8.239 | 7.981 | 7.746
[2], x2 = 0.8007 | – | – | – | 9.272 | 8.951 | 8.651
[2], x2 = 0.8524 | – | – | – | 9.877 | 9.521 | 9.177
[2], x2 = 0.8904 | – | – | – | 10.381 | 9.983 | 9.607
[2], x2 = 0.9402 | – | – | – | 11.091 | 10.642 | 10.222

CCCCCCN [1-hexanamine] + CO
Conditions | refractive index, 293.15 K | refractive index, 298.15 K | refractive index, 303.15 K | relative permittivity, 293.15 K | relative permittivity, 298.15 K
[1], x2 = 0 | 1.41808 | 1.41563 | 1.41321 | – | –
[1], x2 = 0.0534 | 1.41741 | 1.41499 | 1.41261 | – | –
[1], x2 = 0.0942 | 1.41681 | 1.41442 | 1.41204 | – | –
[1], x2 = 0.1871 | 1.41513 | 1.41282 | 1.4104 | – | –
[1], x2 = 0.2977 | 1.4125 | 1.41017 | 1.40773 | – | –
[1], x2 = 0.4039 | 1.40889 | 1.40657 | 1.40412 | – | –
[1], x2 = 0.4917 | 1.4048 | 1.40243 | 1.4 | – | –
[1], x2 = 0.5977 | 1.3979 | 1.3955 | 1.39316 | – | –
[1], x2 = 0.6997 | 1.38836 | 1.38615 | 1.38372 | – | –
[1], x2 = 0.7995 | 1.37505 | 1.37296 | 1.37067 | – | –
[1], x2 = 0.8475 | 1.36685 | 1.36479 | 1.36257 | – | –
[1], x2 = 0.8978 | 1.35657 | 1.3546 | 1.3524 | – | –
[1], x2 = 0.9496 | 1.34385 | 1.34182 | 1.33968 | – | –
[1], x2 = 0.9834 | 1.33399 | 1.33194 | 1.3298 | – | –
[2], x2 = 0 | – | – | – | 3.964 | 3.904
[2], x2 = 0.0534 | – | – | – | 4.367 | 4.293
[2], x2 = 0.122 | – | – | – | 4.964 | 4.87
[2], x2 = 0.1906 | – | – | – | 5.681 | 5.564
[2], x2 = 0.3081 | – | – | – | 7.244 | 7.085
[2], x2 = 0.395 | – | – | – | 8.783 | 8.557
[2], x2 = 0.4982 | – | – | – | 11.109 | 10.806
[2], x2 = 0.6035 | – | – | – | 14.21 | 13.794
[2], x2 = 0.7016 | – | – | – | 17.646 | 17.127
[2], x2 = 0.8002 | – | – | – | 21.864 | 21.254
[2], x2 = 0.8485 | – | – | – | 24.251 | 23.597
[2], x2 = 0.8984 | – | – | – | 26.928 | 26.203
[2], x2 = 0.9496 | – | – | – | 30.037 | 29.216
[2], x2 = 0.9834 | – | – | – | 32.343 | 31.44

CCCCCCN [1-hexanamine] + CCCCO
Conditions | refractive index, 293.15 K | refractive index, 298.15 K | refractive index, 303.15 K | relative permittivity, 293.15 K | relative permittivity, 298.15 K | relative permittivity, 303.15 K
[1], x2 = 0 | 1.4181 | 1.41565 | 1.41322 | – | – | –
[1], x2 = 0.0552 | 1.41812 | 1.41564 | 1.41324 | – | – | –
[1], x2 = 0.0896 | 1.418 | 1.41556 | 1.41319 | – | – | –
[1], x2 = 0.1588 | 1.41781 | 1.41542 | 1.41306 | – | – | –
[1], x2 = 0.1967 | 1.41768 | 1.41529 | 1.41294 | – | – | –
[1], x2 = 0.3035 | 1.41702 | 1.4147 | 1.4124 | – | – | –
[1], x2 = 0.4077 | 1.41603 | 1.41381 | 1.41148 | – | – | –
[1], x2 = 0.4984 | 1.41487 | 1.41267 | 1.4104 | – | – | –
[1], x2 = 0.6004 | 1.41298 | 1.41079 | 1.40852 | – | – | –
[1], x2 = 0.6977 | 1.41065 | 1.40845 | 1.40621 | – | – | –
[1], x2 = 0.7982 | 1.40746 | 1.40534 | 1.40316 | – | – | –
[1], x2 = 0.8451 | 1.40577 | 1.40368 | 1.40155 | – | – | –
[1], x2 = 0.8996 | 1.40359 | 1.40158 | 1.39949 | – | – | –
[1], x2 = 0.9461 | 1.40166 | 1.39965 | 1.39765 | – | – | –
[2], x2 = 0 | – | – | – | 3.965 | 3.904 | 3.845
[2], x2 = 0.051 | – | – | – | 4.258 | 4.186 | 4.12
[2], x2 = 0.0969 | – | – | – | 4.538 | 4.46 | 4.385
[2], x2 = 0.1402 | – | – | – | 4.828 | 4.739 | 4.656
[2], x2 = 0.2052 | – | – | – | 5.294 | 5.19 | 5.094
[2], x2 = 0.3095 | – | – | – | 6.164 | 6.028 | 5.898
[2], x2 = 0.4059 | – | – | – | 7.139 | 6.965 | 6.797
[2], x2 = 0.5054 | – | – | – | 8.352 | 8.121 | 7.905
[2], x2 = 0.593 | – | – | – | 9.623 | 9.333 | 9.058
[2], x2 = 0.6983 | – | – | – | 11.376 | 11.005 | 10.656
[2], x2 = 0.8047 | – | – | – | 13.472 | 13.003 | 12.566
[2], x2 = 0.8525 | – | – | – | 14.558 | 14.054 | 13.565
[2], x2 = 0.9035 | – | – | – | 15.741 | 15.182 | 14.656
[2], x2 = 0.946 | – | – | – | 16.795 | 16.197 | 15.632
